Results taken from patent US8642766B2, “Synthesis of (+) cortistatin A and related compounds” (priority 2008, dated 2014).

Assays:
HUVECs = test: Assay to determine activity against HUVECs (carried out by Pfizer, Inc.); assay type: cell-based, human; settings: for IC50: synthetic material, tested by Pfizer, Inc.
From the text: [Aoki et al., J. Am. Chem. Soc. 2006, 128:3148-3149]

[1] = test system: human umbilical vein endothelial cells (HUVECs); settings: cited from earlier work

**Q.** For `CN(C)[C@H]1C[C@@]23CC[C@@]4(O2)C(=CC[C@]2(C)[C@@H](c5ccc6ccncc6c5)CC[C@H]24)C=C3[C@@H](O)[C@@H]1O` [17-epi-cortistatin A], which IC50 (HUVECs) is on record?
**A.** The IC50 was greater than 1000 nM.

**Q.** Which results are given for `CN(C)[C@H]1C[C@@]23CC[C@@]4(O2)C(=CC[C@]2(C)[C@@H](c5ccc6ccncc6c5)CC[C@H]24)C=C3[C@@H](O)[C@@H]1O` [cortistatin A, (+)-cortistatin A]?
**A.** IC50 (HUVECs; Homo sapiens, HUVEC): 2.43 nM; IC50 ([1]; natural cortistatin A tested by Kobayashi group, Aoki et al., J. Am. Chem. Soc. 2006, read-out: IC50 against HUVECs, natural cortistatin A): 1.8 nM; IC50 (testing cells)/IC50 (HUVECs) ([1]; selectivity versus healthy or cancerous cell lines, Aoki et al. 2006): ≥ 3300

**Q.** Which results are given for `CN(C)[C@H]1C[C@@]23CC[C@@]4(O2)C(=CC[C@]2(C)C(c5ccc6ccncc6c5)=CC[C@H]24)C=C3[C@@H](O)[C@@H]1O` [Δ^16-cortistatin A]?
**A.** IC50 (HUVECs; Homo sapiens, HUVEC): 3.88 nM; biological activity compared with (+)cortistatin A (HUVECs; statement in words, refers to the HUVEC results discussed below it): substantially the same as that of (+)cortistatin A
